# From US20220119456A1, “ANTI-SARS-COV-2 FUSION PEPTIDES” (KING FAISAL UNIVERSITY, priority 2020, published 2022)
# Where two headings read alike, the source gives them in different places. Where a SMILES comes first, the peptide text is derived from it.
# Columns and labels:
# [1] = tested on: SARS-CoV-2 S pseudotyped VSV viral particles
# SARS-CoV-2 = settings: for reduction in SARS-CoV-2 plaques formation: 10 μM peptide, Vero E6 cells
# [2] = tested on: SARS-CoV-2 Spike-mediated cell-cell fusion
# [3] = tested on: SARS-CoV-2 S pseudotyped VSV viral particles; remark: listed apart in the source
# [4] = tested on: SARS-CoV-2 S pseudotyped VSV viral particles; remark: listed apart in the source
# [5] = S pseudotyped VSV viral particles
Compound,inhibition against the infection through the endocytosis pathway in VeroE6 cells [1] [%],"IC50 [1, 5] [nM]",reduction in SARS-CoV-2 plaques formation (SARS-CoV-2),IC50 [2] [nM],IC50 [3] [nM],inhibition of TMPRSS2-dependent pseudovirus infection through plasma membrane [4],"IC50 [4, 5] [nM]",IC50 (SARS-CoV-2) [nM]
CC[C@H](C)[C@H](NC(=O)CNC(=O)[C@H](CO)NC(=O)[C@@H](NC(=O)[C@H](CC(=O)O)NC(=O)CNC(=O)[C@H](CC(C)C)NC(=O)[C@@H](NC(=O)[C@@H](N)Cc1c[nH]cn1)C(C)C)[C@@H](C)CC)C(=O)N[C@@H](CC(N)=O)C(=O)N[C@@H](C)C(=O)N[C@@H](CO)C(=O)N[C@H](C(=O)N[C@H](C(=O)N[C@@H](CCC(N)=O)C(=O)N[C@H](C(=O)N[C@@H](CCC(N)=O)C(=O)N[C@@H](CCCCN)C(=O)N[C@@H](CCC(=O)O)C(=O)N[C@H](C(=O)N[C@@H](CC(=O)O)C(=O)N[C@@H](CCCNC(=N)N)C(=O)N[C@@H](CC(C)C)C(=O)N[C@@H](CC(N)=O)C(=O)N[C@@H](CCC(=O)O)C(=O)N[C@H](C(=O)N[C@@H](C)C(=O)N[C@@H](CCCCN)C(=O)N[C@@H](CC(N)=O)C(=O)N[C@@H](CC(C)C)C(=O)N[C@@H](Cc1c[nH]cn1)C(=O)N[C@@H](CCC(=O)O)C(=O)N[C@@H](CO)C(=O)N[C@@H](CC(C)C)C(=O)N[C@H](C(=O)N[C@@H](Cc1ccc(O)cc1)C(=O)N[C@@H](CC(C)C)C(=O)N[C@@H](CCC(N)=O)C(=O)N[C@@H](CCC(=O)O)C(=O)O)[C@@H](C)CC)C(C)C)[C@@H](C)CC)[C@@H](C)CC)C(C)C)C(C)C [#121],≤ 38,> 10000,approximately 15%,720,160,strong inhibition,< 1000,–
CC[C@H](C)[C@H](NC(=O)CNC(=O)[C@H](CCCNC(=N)N)NC(=O)[C@@H](NC(=O)[C@H](CCC(N)=O)NC(=O)[C@H](CCCNC(=N)N)NC(=O)[C@H](CC(C)C)NC(=O)[C@H](CCCNC(=N)N)NC(=O)[C@@H](N)Cc1c[nH]cn1)[C@@H](C)CC)C(=O)N[C@@H](CCCNC(=N)N)C(=O)N[C@@H](C)C(=O)N[C@@H](CCCNC(=N)N)C(=O)N[C@H](C(=O)N[C@H](C(=O)N[C@@H](CCC(N)=O)C(=O)N[C@H](C(=O)N[C@@H](CCC(N)=O)C(=O)N[C@@H](CCCCN)C(=O)N[C@@H](CCC(=O)O)C(=O)N[C@H](C(=O)N[C@@H](Cc1c[nH]c2ccccc12)C(=O)N[C@@H](CCCNC(=N)N)C(=O)N[C@@H](CC(C)C)C(=O)N[C@@H](CC(N)=O)C(=O)N[C@@H](CCC(=O)O)C(=O)N[C@H](C(=O)N[C@@H](C)C(=O)N[C@@H](CCCCN)C(=O)N[C@@H](CC(C)C)C(=O)N[C@@H](CC(C)C)C(=O)N[C@@H](CC(N)=O)C(=O)N[C@@H](CCC(=O)O)C(=O)N[C@@H](CO)C(=O)N[C@@H](CC(C)C)C(=O)N[C@H](C(=O)N[C@@H](Cc1ccc(O)cc1)C(=O)N[C@@H](CC(C)C)C(=O)N[C@@H](CCC(N)=O)C(=O)N[C@@H](CCC(=O)O)C(=O)O)[C@@H](C)CC)C(C)C)[C@@H](C)CC)[C@@H](C)CC)C(C)C)C(C)C [#125] (H-HRLRQIRGIRARVVQIQKEIWRLNEVAKLLNESLIYLQE-OH),–,–,75%,4400,–,–,–,460
